Laboratory results as given in patent publication US11077100B2, “Tetrahydroquinoline derivatives as P2X7 receptor antagonists” (RaQualia Pharma Inc., priority 2017, dated 2021).

Assays:
human P2X7 = human P2X7 (Homo sapiens (Human), UniProt Q99572); test: Human P2X7 functional assay (Ca2+ influx, Fluo-4, FDSS); type: cell-based; details: antagonistic activity with respect to the human P2X7 receptor; BzATP final concentration 80 microM
Procedure, shortened: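 HEK293 cells stably expressing C-terminally FLAG-tagged human P2X7, loaded with Fluo-4. Compounds were preincubated for 10 min at room temperature, then 80 μM BzATP (final) was added and Ca2+ fluorescence read at 540 nm (480 nm excitation) by FDSS. IC50 values come from 7-point curves, duplicate wells.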

rat P2X7 = rat P2X7 (Rattus norvegicus (Rat), UniProt Q64663); test: Rat P2X7 functional assay (Ca2+ influx, Fluo-4, FDSS); type: cell-based; details: HEK293 cells stably expressing rat P2X7; BzATP final 10 microM; 7-point dose-response; read-out: Antagonistic activities with respect to the rat P2X7 receptor (IC50)
Procedure, shortened: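 HEK293 cells stably expressing rat P2X7 (5,000/well, plated 24 h before) loaded with Fluo-4; compounds preincubated 10 min at room temperature, then Ca2+ rise after 10 microM BzATP (final) read on FDSS (480/540 nm). IC50 from 7-point curves, duplicate wells.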

Sequence of rat P2X7 (Q64663 whole entry): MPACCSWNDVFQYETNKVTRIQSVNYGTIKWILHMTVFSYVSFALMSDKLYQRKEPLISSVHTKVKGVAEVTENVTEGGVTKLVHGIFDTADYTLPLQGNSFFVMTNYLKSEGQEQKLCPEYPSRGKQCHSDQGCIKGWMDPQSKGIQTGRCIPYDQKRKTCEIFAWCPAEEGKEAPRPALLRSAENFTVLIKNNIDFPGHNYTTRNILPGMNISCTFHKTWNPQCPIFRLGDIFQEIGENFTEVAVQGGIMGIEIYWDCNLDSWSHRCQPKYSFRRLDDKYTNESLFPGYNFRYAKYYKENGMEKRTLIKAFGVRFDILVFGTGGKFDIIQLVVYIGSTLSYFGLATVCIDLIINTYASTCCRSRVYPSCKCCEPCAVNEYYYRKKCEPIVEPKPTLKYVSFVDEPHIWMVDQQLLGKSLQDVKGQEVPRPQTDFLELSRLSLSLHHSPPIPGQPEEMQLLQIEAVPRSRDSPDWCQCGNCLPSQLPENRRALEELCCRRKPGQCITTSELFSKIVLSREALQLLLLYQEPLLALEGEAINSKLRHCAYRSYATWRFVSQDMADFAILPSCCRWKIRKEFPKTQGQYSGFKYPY
Sequence of human P2X7 (Q99572 whole entry): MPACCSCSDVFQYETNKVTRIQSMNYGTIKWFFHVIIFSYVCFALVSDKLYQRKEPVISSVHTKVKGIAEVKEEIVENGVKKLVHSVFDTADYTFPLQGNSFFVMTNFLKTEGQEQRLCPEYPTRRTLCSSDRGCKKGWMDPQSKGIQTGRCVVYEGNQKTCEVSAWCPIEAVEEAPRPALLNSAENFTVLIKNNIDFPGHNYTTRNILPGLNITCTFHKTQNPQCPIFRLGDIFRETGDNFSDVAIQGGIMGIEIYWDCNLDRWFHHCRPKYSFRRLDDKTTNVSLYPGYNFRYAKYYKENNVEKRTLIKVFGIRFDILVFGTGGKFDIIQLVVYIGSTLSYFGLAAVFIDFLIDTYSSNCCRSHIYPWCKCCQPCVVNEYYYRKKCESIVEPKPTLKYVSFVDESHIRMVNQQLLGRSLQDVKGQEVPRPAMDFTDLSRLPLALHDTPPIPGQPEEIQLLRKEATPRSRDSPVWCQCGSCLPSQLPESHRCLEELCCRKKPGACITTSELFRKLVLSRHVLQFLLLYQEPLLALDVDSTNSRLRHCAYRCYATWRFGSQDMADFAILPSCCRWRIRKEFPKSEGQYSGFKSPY

Compound | IC50 (human P2X7) | IC50 (rat P2X7)
O=C(NCc1ccc(Cl)cc1Cl)C1(F)CC(O)(CO)c2ncccc21 (centres unmarked) [Example 38, N-(2,4-dichlorobenzyl)-5-fluoro-7-hydroxy-7-(hydroxymethyl)-6,7-dihydro-5H-cyclopenta[b]pyridine-5-carboxamide] | 101 to 300 nM | < 1000 nM
N[C@]1(CO)CC[C@@](F)(C(=O)NCc2ccc(Cl)cc2Cl)c2cccnc21 (relative stereo) [Example 59, (5S*,8R*)-8-amino-N-(2,4-dichloro-benzyl)-5-fluoro-8-(hydroxymethyl)-5,6,7,8-tetrahydroquinoline-5-carboxamide] | < 50 nM | < 1000 nM
O=C(NCc1cc(F)c(F)cc1Cl)[C@]1(F)CC[C@H](O)c2ncccc21 [Example 163, (5S,8S)-N-(2-chloro-4,5-difluorobenzyl)-5-fluoro-8-hydroxy-5,6,7,8-tetrahydroquinoline-5-carboxamide] | < 50 nM | < 1000 nM
COC[C@]1(O)CC[C@@](F)(C(=O)NCc2ccc(Cl)cc2Cl)c2cccnc21 (relative stereo) [Example 41, (5S*,8S*)-N-(2,4-dichlorobenzyl)-5-fluoro-8-hydroxy-8-(methoxymethyl)-5,6,7,8-tetrahydro-quinoline-5-carboxamide] | < 50 nM | < 1000 nM
O=C(NCc1ccc(F)cc1F)[C@]1(F)CC[C@H](OCCO)c2ncccc21 [Example 347, (5S,8S)-N-(2,4-difluorobenzyl)-5-fluoro-8-(2-hydroxyethoxy)-5,6,7,8-tetrahydroquinoline-5-carboxamide] | 50 to 100 nM | < 1000 nM
O=C(NCc1ccc(F)c(F)c1F)[C@@]1(F)CC[C@@H](O)c2ncccc21 [Example 136, (5R,8R)-5-fluoro-8-hydroxy-N-(2,3,4-trifluorobenzyl)-5,6,7,8-tetrahydroquinoline-5-carboxamide] | 101 to 300 nM | < 1000 nM
O=C(NCc1ccc(F)cc1Cl)[C@]1(F)CC[C@@H](O)c2ncccc21 [Example 107, (5S,8R)-N-(2-chloro-4-fluorobenzyl)-5-fluoro-8-hydroxy-5,6,7,8-tetrahydroquinoline-5-carboxamide] | 101 to 300 nM | < 1000 nM
O=C(NCc1ccc(Br)cc1F)[C@@H]1CC[C@H](O)c2ncccc21 [Example 80, (5R,8S)-N-(4-bromo-2-fluorobenzyl)-8-hydroxy-5,6,7,8-tetrahydroquinoline-5-carboxamide] | 50 to 100 nM | < 1000 nM
Cc1cc(Cl)cc(Cl)c1CNC(=O)C1CC(=O)c2ncccc21 (centres unmarked) [Example 16, N-(2,4-dichloro-6-methylbenzyl)-7-oxo-6,7-dihydro-5H-cyclopenta[b]pyridine-5-carboxamide] | < 50 nM | < 1000 nM
O=C1CC[C@@](F)(C(=O)NCc2cccc(F)c2Cl)c2cccnc21 [Example 250, (S)-N-(2-chloro-3-fluorobenzyl)-5-fluoro-8-oxo-5,6,7,8-tetrahydro-quinoline-5-carboxamide] | 101 to 300 nM | < 1000 nM
O=C(NCc1ccc(Cl)c(F)c1F)[C@]1(F)CC[C@@](O)(CO)c2ncccc21 [Example 322, (5S,8S)-N-(4-chloro-2,3-difluorobenzyl)-5-fluoro-8-hydroxy-8-(hydroxymethyl)-5,6,7,8-tetrahydroquinoline-5-carboxamide] | 101 to 300 nM | < 1000 nM
O=C(NCc1ccc(Cl)cc1Cl)[C@]1(F)CCC(S(=O)(=O)CCO)c2ncccc21 (stereo partly drawn) [Example 351, (5S)-N-(2,4-clichlorebenzyl)-5-fluoro-8-((2-hydroxyethyl)sulfenyl)-5,6,7,8-letrahydroquineline-5-carboxamide] | < 50 nM | < 1000 nM
O=C(NCc1ccc(F)c(Cl)c1F)[C@]1(F)CC[C@@](O)(CO)c2ncccc21 [Example 323, (5S,8S)-N-(3-chloro-2,4-difluorobenzyl)-5-fluoro-8-hydroxy-8-(hydroxymethyl)-5,6,7,8-tetrahydroquinoline-5-carboxamide] | 101 to 300 nM | < 1000 nM
O=C(N[C@@H]1CCCc2ccccc21)[C@]1(F)CC[C@H](O)c2ncccc21 [Example 189, (5S,8S)-5-fluoro-8-hydroxy-N-((R)-1,2,3,4-tetrahydronaphthalen-1-yl)-5,6,7,8-tetrahydroquinoline 5-carboxamide] | < 50 nM | < 1000 nM
O=C(NCc1ccc(F)cc1Cl)[C@]1(F)CC[C@@](O)(CSCCO)c2ncccc21 [Example 289, (5S,8S)-N-(2-chloro-4-fluorobenzyl)-5-fluoro-8-hydroxy-8-(((2-hydroxyethyl)thio)methyl)-5,6,7,8-tetrahydroquinoline-5-carboxamide] | < 50 nM | < 1000 nM
O=C(NCc1cccc(C(F)(F)F)c1Cl)C1CC(O)c2ncccc21 (centres unmarked) [Example 27, N-(2-chloro-3-(trifluoro-methyl)benzyl)-7-hydroxy-6,7-dihydro-5H-cyclopenta[b] pyridine-5-carboxamide] | < 50 nM | < 1000 nM

Compound | IC50 (human P2X7) | IC50 (rat P2X7)
O=C(NCc1ccc(Cl)cc1Cl)[C@]1(F)CC[C@@](O)(CF)c2ncccc21 [Example 285, (5S,8S)-N-(2,4-dichlorobenzyl)-5-fluoro-8-(fluoromethyl)-8-hydroxy-5,6,7,8-tetrahydroquinoline-5-carboxamide] | < 50 nM | < 1000 nM
C=C1CC(C(=O)NCc2c(C)cc(Cl)cc2Cl)c2cccnc21 (centres unmarked) [Example 11, N-(2,4-dichloro-6-methyl-benzyl)-7-methylene-6,7-dihydro-5H-cyclopenta [b]pyridine-5-carboxamide] | < 50 nM | < 1000 nM
Cc1cc(Cl)cc(Cl)c1CNC(=O)C1CC(O)c2ncccc21 (centres unmarked) [Example 26, N-(2,4-dichloro-6-methyl-benzyl)-7-hydroxy-6,7-dihydro-5H-cyclopenta[b] pyridine-5-carboxamide] | < 50 nM | < 1000 nM
O=C(NC1COc2cc(Cl)cc(Cl)c21)[C@]1(F)CC[C@H](O)c2ncccc21 (stereo partly drawn) [Example 229, (5S,8S)-N-(4,6-dichloro-2,3-dihydrobenzofuran-3-yl)-5-fluoro-8-hydroxy-5,6,7,8-tetrahydroquinoline-5-carboxamide] | < 50 nM | < 1000 nM
O=C(NCc1c(F)ccc(F)c1Cl)[C@]1(F)CC[C@H](O)c2ncccc21 [Example 170, (5S,8S)-N-(2-chloro-3,6-difluorobenzyl)-5-fluoro-8-hydroxy-5,6,7,8-tetrahydroquinoline-5-carboxamide] | < 50 nM | < 1000 nM
O=C(NCc1cccc(C(F)(F)F)c1Cl)C1(O)CCC(O)c2ncccc21 (centres unmarked) [Example 25, N-(2-chloro-3-(trifluoro-methyl)benzyl)-5,8-dihydroxy-5,6,7,8-tetrahydroquinoline-5-carboxamide] | 101 to 300 nM | < 1000 nM
O=C(NCc1ccc(F)c(F)c1F)[C@]1(F)CC[C@H](O)c2ncccc21 [Example 137, (5S,8S)-5-fluoro-8-hydroxy-N-(2,3,4-trifluorobenzyl)-5,6,7,8-tetrahydroquinoline-5-carboxamide] | < 50 nM | < 1000 nM
O=C(NCc1ccc(F)c(F)c1F)[C@]1(F)CC[C@@](O)(CO)c2ncccc21 [Example 308, (5S,8S)-5-fluoro-8-hydroxy-8-(hydroxymethyl)-N-(2,3,4-trifluorobenzyl)-5,6,7,8-tetrahydroquinoline-5-carboxamide] | 101 to 300 nM | < 1000 nM
O=C(NCc1ccccc1C(F)(F)F)[C@]1(F)CC[C@H](O)c2ncccc21 [Example 199, (5S,8S)-5-fluoro-8-hydroxy-N-(2-(trifluoromethyl)benzyl)-5,6,7,8-tetrahydroquinoline-5-carboxamide] | 50 to 100 nM | < 1000 nM
CO[C@H]1CC[C@@](F)(C(=O)NCc2ccc(Cl)cc2F)c2cccnc21 [Example 340, (5S,8S)-N-(4-chloro-2-fluorobenzyl)-5-fluoro-8-methoxy-5,6,7,8-tetrahydroquinoline-5-carboxamide] | < 50 nM | < 1000 nM
CC1(O)CN(C[C@]2(O)CC[C@@](F)(C(=O)NCc3ccc(F)cc3Cl)c3cccnc32)C1 (relative stereo) [Example 54, (5S*,8R*)-N-(2-chloro-4-fluorobenzyl)-5-fluoro-8-hydroxy-8-((3-hydroxy-3-methylazetidin-1-yl)methyl)-5,6,7,8-tetra-hydroquinoline-5-carboxamide] | < 50 nM | < 1000 nM
O=C(NCc1ccc(F)cc1Cl)[C@H]1CC[C@H](O)c2ncccc21 [Example 67, (5S,8S)-N-(2-chloro-4-fluorobenzyl)-8-hydroxy-5,6,7,8-tetrahydroquinoline-5-carboxamide] | 101 to 300 nM | < 1000 nM
O=C(NCc1ccc(Cl)cc1F)[C@]1(F)CC[C@H](OCCO)c2ncccc21 [Example 346, (5S,8S)-N-(4-chloro-2-fluorobenzyl)-5-fluoro-8-(2-hydroxyethoxy)-5,6,7,8-tetrahydroquinoline-5-carboxamide] | < 50 nM | < 1000 nM
Cc1cc(Cl)cc(Cl)c1CNC(=O)[C@]1(F)CC[C@@H](O)c2ncccc21 [Example 100, (5S,8R)-N-(2,4-dichloro-6-methylbenzyl)-5-fluoro-8-hydroxy-5,6,7,8-tetrahydroquinoline-5-carboxamide] | < 50 nM | < 1000 nM
O=C(NCc1ccc(F)cc1Cl)[C@]1(F)CC[C@H](O)c2ncccc21 [Example 135, (5S,8S)-N-(2-chloro-4-fluorobenzyl)-5-fluoro-8-hydroxy-5,6,7,8-tetrahydroquinoline-5-carboxamide] | < 50 nM | < 1000 nM
